Measured values: US20250092383A1, “COMPOUNDS AND METHODS FOR FBXO22-MEDIATED PROTEIN DEGRADATION” (Northwestern University, priority 2023, published 2025)

Key:
[1] = molecular target: FKBP12 (Homo sapiens, UniProt P62942); assay: Western blot of FLAG-FKBP12 degradation in HEK293T cells expressing HA-FBXO22; assay type: cell-based; set-up: expressed in transfected cells; host or cells: HEK293T
Description: The bar graph represents quantification of the FLAG-FKBP12/HSP90 protein content. Data are presented as the mean values±s.e.m. […] HEK293T cells expressing HA-FBXO22 were treated with 0.025-15 μM 22-SLF for 8 h. The graph represents quantification of the FLAG-FKBP12/HSP90 protein content. Data are presented as the mean values (n=2 biological independent samples). […] The bar graph represents quantification of the FLAG-FKBP12/HSP90 protein content. KO, knockout; WT, wild type. Data are presented as the mean values (n=2 biological independent samples). […] The bar graph represents quantification of the FLAG-FKBP12/HSP90 protein content. Data are presented as the mean values±s.e.m. […] The result is representative of two independent experiments with similar results. WCL, whole-cell lysate; IP, immunoprecipitate.
FIGS. 3A-3H show FBXO22 C227 and C228 are involved in 22-SLF-mediated degradation of FKBP12. […] Among 5,650 quantified IA-DTB-modified peptides, four cysteines were identified on FBXO22 (C83, C117, C228, and C365). […] Data are presented as the mean values (n=2 biological independent samples for DMSO treatment; n=3 biological independent samples for 22-SLF Treatment). […] The bag graph represents quantification of the FLAG-FKBP12/HSP90 protein content. Data are presented as mean values (n=2 biological independent samples). […] The bar graph represents quantification of the FLAG-FKBP12/HSP90 protein content. Data are presented as the mean values (n=2 biological independent samples).
FIG. 11A-11B show the acrylamide variant of 22-SLF, 22a-SLF, induced the degradation of FKBP12. […] HEK293T cells expressing HA-FBXO22 were treated with 0.5, 1, or 2 μM of 22-SLF or 22a-SLF for 8 hours. The graph represents quantification of the FLAG-FKBP12/HSP90 protein content. Data are presented as mean values (n=2 biological independent samples).
Next, Western blot analysis was used to measure the degradation of FKBP12 induced by 22-SLF. To achieve this, FLAG-tagged FKBP12 and HA-tagged FBXO22 were stably overexpressed in HEK293T cells, followed by subjecting the cells to varying concentrations of 22-SLF. […] Moreover, 22-SLF's effect on FLAG-FKBP12 degradation was concentration-dependent (FIG. 2a). […] The rescue enabled by MLN4924 indicates the involvement of a Cullin-RING ligase (CRL) in the degradation process. This is consistent with FBXO22 belonging to SKP1-CUL1-F-box protein (SCF) ubiquitin ligase complexes, a subfamily of CRL. […] To provide a more comprehensive insight into 22-SLF-induced FKBP12 degradation, a dose-dependent degradation experiment using 11 concentrations of 22-SLF ranging from […] to 15 μM was conducted. This experiment enabled determination of two parameters, the Dmax value, which reached 89%, and the half-maximal degradation concentration (DC50) value, which measured at 0.5 μM (FIG. 2B). […] Collectively, this array of data supports the canonical mechanism of ligand-induced protein degradation. In this mechanism, 22-SLF orchestrates the recruitment of FBXO22 to FKBP12, culminating in the proteasomal degradation of FKBP12.
To identify the cysteine residue(s) in FBXO22 engaged with 22-SLF, HA-FBXO22-expressing HEK293T cells were treated with either DMSO or 22-SLF (2 μM, 2 hours). Using competitive cysteine-directed activity-based protein profiling (ABPP), a chemical proteomics for the measurement of target engagement, the degree of blockade of iodoacetamide-desthiobiotin (IA-DTB)-modified cysteines on FBXO22 was quantified. From a pool of 5,650 quantified IA-DTB-modified peptides, four cysteines on FBXO22 (C83, C117, C228, and C365) (FIG. 3a) were identified, with approximately 20% of FBXO22 C228 being blocked by 22-SLF treatment (FIG. 3b), indicating the potential interaction with this cysteine by 22-SLF. Consequently, C228 was mutated to alanine and HA-FBXO22 C228A-expressing HEK293T cells were generated (FIG. 3c). […]

[2] = molecular target: T1, FKBP12 and FBXO22 (Homo sapiens, UniProt P62942+Q8NEZ5); assay: Coimmunoprecipitation of HA-FBXO22 with FLAG-FKBP12 (ternary complex); assay type: cell-based; conditions: HEK293T cells, with MG132
T1 construct: expressed in transfected cells; host or cells: HEK293T
From the text: (§1) FIGS. 4A-4C show 22-SLF induces the formation of a ternary complex involving 22-SLF, FKBP12 and FBXO22. […] The bar graph represents quantification of the immunoprecipitated HA-FBXO22 protein content compared to the HA-FBXO22 protein in whole cell lysates (WCL). Data are presented as the mean values (n=2 biological independent samples). […] Data are presented as the mean values (n=2 biological independent samples).
(§2) The formation of ternary complex by degraders with their target protein and E3 ligase drives the subsequent target degradation.

[3] = test system: FKBP12 and FBXO22; assay: as above; assay type: cell-based, human; conditions: HEK293T cells, with MG132
From the text: as §1, §2

[4] = molecular target: T2, FKBP12 and FBXO22 (Homo sapiens, UniProt P62942+Q8NEZ5, C227A/C228A); assay: as above; assay type: cell-based; conditions: HEK293T cells, with MG132
T2 construct: expressed in transfected cells; host or cells: HEK293T
From the text: as §1, §2

Sequence of FKBP12 (P62942 whole entry): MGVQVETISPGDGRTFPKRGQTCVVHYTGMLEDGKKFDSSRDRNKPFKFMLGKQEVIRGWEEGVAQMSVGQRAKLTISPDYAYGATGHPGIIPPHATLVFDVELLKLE
T2 sequence (P62942 2-108): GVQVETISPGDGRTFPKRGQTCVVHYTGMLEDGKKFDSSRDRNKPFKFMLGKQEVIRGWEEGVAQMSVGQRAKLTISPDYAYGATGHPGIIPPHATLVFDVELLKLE
T2 sequence (Q8NEZ5 whole entry C227A/C228A): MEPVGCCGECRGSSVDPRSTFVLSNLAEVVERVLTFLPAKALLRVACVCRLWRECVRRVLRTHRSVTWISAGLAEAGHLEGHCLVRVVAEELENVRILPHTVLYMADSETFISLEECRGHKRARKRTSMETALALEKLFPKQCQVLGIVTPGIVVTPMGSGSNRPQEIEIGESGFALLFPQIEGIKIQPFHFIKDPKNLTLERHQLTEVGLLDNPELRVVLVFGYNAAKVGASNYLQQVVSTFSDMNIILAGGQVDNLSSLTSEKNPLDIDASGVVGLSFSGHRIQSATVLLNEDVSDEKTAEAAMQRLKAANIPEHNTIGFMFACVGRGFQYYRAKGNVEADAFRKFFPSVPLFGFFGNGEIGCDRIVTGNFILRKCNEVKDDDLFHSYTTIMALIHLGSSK
T2 sequence (P63208 whole entry partner): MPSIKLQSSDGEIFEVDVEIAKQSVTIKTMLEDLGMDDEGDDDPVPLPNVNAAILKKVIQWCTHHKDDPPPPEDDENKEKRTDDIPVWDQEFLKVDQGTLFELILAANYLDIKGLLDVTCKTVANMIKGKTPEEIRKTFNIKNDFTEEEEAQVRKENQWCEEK
T1 sequence (P62942 2-108): as the sequence (P62942 2-108) above
T1 sequence (Q8NEZ5 whole entry): as the sequence (Q8NEZ5 whole entry C227A/C228A) above, with A227C, A228C counted along it
T1 sequence (P63208 whole entry partner): as the sequence (P63208 whole entry partner) above

CCC(C)(C)C(=O)C(=O)N1CCCC[C@H]1C(=O)O[C@H](CCc1ccc(OC)c(OC)c1)c1cccc(OCC(=O)NCCCOCCOCCOCCCN(C(=O)CCl)C(C(=O)NCc2ccccc2)c2nc3ccccc3s2)c1 (stereo partly shown) [22-SLF]
DC50 ([1]; 11 concentrations, 0.25 to 15 μM, 8 h, HEK293T expressing HA-FBXO22, read-out: half-maximal degradation concentration (DC50)): 500 nM
Concentration dependence of FLAG-FKBP12 degradation ([1]; HEK293T cells expressing HA-FBXO22): concentration-dependent
FKBP12 degradation with FBXO22 double mutant C227AC228A ([1]; HEK293T cells expressing the variant): completely blocked
FKBP12 degradation with FBXO22 single mutants C227A and C228A ([1]; HEK293T cells expressing the variants): partially impeded
Loss of FLAG-FKBP12 expression in cells lacking HA-FBXO22 ([1]; HEK293T cells without HA-FBXO22): no reduction was observed
Dmax ([1]; HEK-293T, 11 concentrations, 0.25 to 15 μM, 8 h, HEK293T expressing HA-FBXO22): 89%
Time to nearly complete FLAG-FKBP12 degradation ([1]; time course): ≤ 2 h
Ternary complex formation, FBXO22 wild type [2]: HA-FBXO22 co-immunoprecipitated with FLAG-FKBP12
Ternary complex assembly, FBXO22 C227A or C228A single mutant [3]: partially hindered
Ternary complex assembly, FBXO22 C227AC228A double mutant [4]: nearly completely abolished
